The record followed here is patent US20190292189A1, “LIM KINASE INHIBITORS” (VIRONGY, LLC, priority 2016, published 2019).

The target of one data set is P450 3A4 (Homo sapiens, UniProt P08684). The data set is described as follows: P450 inhibition at 10 μM. Type of data set: in vitro ADME.
Data set [1] in a line: Microsomal stability, rat liver microsomes. Conditions: rat liver microsomes. Type of data set: in vitro ADME. (Liver microsomes are vesicles of endoplasmic reticulum, rich in cytochrome P450 enzymes.)
The next data set deals with T1, LRRK2 (G20195) (Homo sapiens, UniProt Q5S007, G2019S).
T1 construct: purchased Reaction Biology Corporation
The data set is described as follows: Kinase profiling at 1 μM (Reaction Biology). The data set is classed as biochemical. As for the experimental part: (§1) Profiling was carried out at Reaction Biology Corporation following a protocol described at its website: http://www.reactionbiology.com/webapps/site/. The % data were the average from two determinations. ATP concentration used: 10 μM; Staurosporine was used as the positive control.
(§2) Biochemical assays for all Limk inhibitors and kinase profiling were carried out in Reaction Biology Corporation and followed the protocols described on its website. […] Compounds were tested at 1 μM with duplicate experiments in profiling assays. […] Reactions were carried out at 10 μM ATP, 1 μM substrate cofilin, and 50 nM Limk1 (final concentrations).

The subject of data set [2] is HIV-1(NL4-3). Kind of data set: microbe, parasite or virus in culture. Type of data set: cell-based.
The next data set addresses P450 2D6 (Homo sapiens, UniProt P10635). Kind of data set: P450 inhibition at 10 μM. The data set is classed as in vitro ADME.
Data set [3] in a line: Microsomal stability, human liver microsomes. The data set is classed as in vitro ADME.
A further data set has as its system resting CD4 T cells. Kind of data set: SDF-1-mediated actin polymerization, FITC-phalloidin staining. The data set is classed as cell-based, human. Conditions: pre-treatment of resting CD4 T cells. On the procedure:
(§3) FIG. 10. Chemical and Biochemical characterization of R10015. a, Chemical structure of R10015 and its docking into the crystal structure of LIMK1 (PDB ID 3S95, Chain A). […] CEM-SS T cells treated with R10015 (100 μM) for a time course, and the phosphorylation of cofilin, LIMK, and PAK1/2 were measured by Western Blot. Levels of each protein or GAPDH were also measured for loading control. d, R10015 inhibits Jurkat T cell chemotaxis in responding to SDF-1. e, R10015. f, R10015 inhibits chemotactic actin activity. Resting CD4 T cells were treated with R10015, and then exposed to SDF-1 for a time course. Actin polymerization were measured by FITC-phalloidin staining. g, the relative intensity of F-actin staining was also plotted.
F-actin staining using phalloidin-FITC (Sigma) was carried out as described previously. Briefly, each staining was carried out using 1×10^6 cells. Cells were pelleted, fixed, and permeabilized with CytoPerm/Cytofix buffer (BD Biosciences) for 20 min at room temperature and washed with cold Perm/Wash buffer (BD Biosciences) twice, followed by staining with 5 μl of 0.3 mM FITC-labeled phalloidin (Sigma) for 30 min on ice in the dark. Cells were washed twice with cold Perm/Wash buffer, then were resuspended in 1% paraformaldehyde, and analyzed on a FACSCalibur (BD Biosciences).

The test system of data set [4] is phosphorylation of PAK1/2. Kind of data set: Western blot of PAK1/2 phosphorylation in CEM-SS T cells. The data set is classed as cell-based, human. On the procedure: as §3
(§4) One million cells were lysed in NuPAGE LDS Sample Buffer (Invitrogen), separated by SDS-PAGE, and then transferred onto nitrocellulose membranes (Invitrogen). The membranes were washed in TBST for 3 min and then blocked for 30 min at room temperature with Starting Block blocking buffer (Pierce). For probing with different antibodies, blots were incubated with rabbit anti-LIMK1 antibodies (Cell Signaling), with rabbit anti-p-coflin antibodies (Cell Signaling) or with a mouse anti-PAK1/2 antibody (Cell Signaling). These antibodies were diluted in 2.5% milk/TBST and rocked overnight at 4° C. […]
For orientation: A western blot detects proteins with antibodies after separation by electrophoresis.

In another data set the test system is HIV-1(AD8). The data set is classed as cell-based. The settings on record: non-toxic dosages.
In data set [5] the test system is cofilin serine 3 phosphorylation in CEM-SS T cells. The data set is described as follows: Western blot of cofilin serine 3 phosphorylation in CEM-SS T cells (time course). The settings on record: 100 μM. Type of data set: cell-based, human. On the procedure:
as §3, §4

Data set [6] deals with RVFV (rift valley fever virus). Type of data set: cell-based. Conditions: Vero cells.
Another data set has as its system phosphorylation of LIMK. The data set is described as follows: Western blot of LIMK phosphorylation in CEM-SS T cells. Type of data set: cell-based, human. On the procedure:
as §3, §4

A further data set has as its target T2, PKA (Homo sapiens, UniProt P17612).
T2 construct: purchased Reaction Biology Corporation
The data set is described as follows: Kinase profiling at 1 μM (Reaction Biology). Type of data set: biochemical. The settings on record: ATP 10 μM. On the procedure:
as §1, §2

For the next data set, the target named is T3, CAMK2b (Homo sapiens, UniProt Q13554).
T3 construct: purchased Reaction Biology Corporation
The data set is described as follows: Kinase profiling at 1 μM (Reaction Biology). The data set is classed as biochemical. The settings on record: ATP 10 μM. As for the experimental part: as §1, §2

In another data set the target is T4, BRAF (Homo sapiens, UniProt P15056).
T4 construct: purchased Reaction Biology Corporation
Kind of data set: Kinase profiling at 1 μM (Reaction Biology). Conditions: ATP 10 μM. The data set is classed as biochemical. As for the experimental part: as §1, §2

The next data set deals with T5, c-5rc (Homo sapiens, UniProt P12931).
T5 construct: purchased Reaction Biology Corporation
The data set is described as follows: Kinase profiling at 1 μM (Reaction Biology). Type of data set: biochemical. Conditions: ATP 10 μM. On the procedure:
as §1, §2

For another data set, the target named is T6, c-Kit (Homo sapiens, UniProt P10721).
T6 construct: purchased Reaction Biology Corporation
Kind of data set: Kinase profiling at 1 μM (Reaction Biology). The data set is classed as biochemical. Conditions: ATP 10 μM. On the procedure: as §1, §2

For another data set, the target named is T7, DAPK1 (Homo sapiens, UniProt P53355).
T7 construct: purchased Reaction Biology Corporation
Kind of data set: Kinase profiling at 1 μM (Reaction Biology). Type of data set: biochemical. Conditions: ATP 10 μM. On the procedure:
as §1, §2

The next data set has as its system HIV-1(Env). The data set is described as follows: Virion release, p24 in supernatant. Type of data set: cell-based.
For data set [7], the system named is single-cycle HIV-1(Env) in CEM-SS T cells. The data set is described as follows: Viral 2-LTR circles, real-time PCR. Type of data set: cell-based.
Data set [8] deals with T8, Limk1 (Homo sapiens, UniProt P53667). The data set is described as follows: Kinase profiling at 1 μM (Reaction Biology). The data set is classed as biochemical. Set-up: His; purchased Reaction Biology Corporation; host or cells: insect cells. Conditions: ATP 10 μM. On the procedure: as §1, §2
Data set [9] relates to HIV-1(NL4-3). The data set is classed as cell-based. The settings on record: non-toxic dosages.
In a further data set the test system is Rev-CEM-GFP-Luc. Conditions: all concentrations tested (up to 200 μM).
The test system of a further data set is EBOV (Zaire ebolavirus). Type of data set: cell-based. Conditions: HFF-1 cells.
The target of data set [10] is T8, Limk1. The data set is described as follows: Limk1 biochemical assay (Reaction Biology, 10-dose IC50). On the set-up: His; purchased Reaction Biology Corporation; host or cells: insect cells.

Like-named read-outs stand apart in the source and are kept apart here.

T8 sequence (P53667 285-638): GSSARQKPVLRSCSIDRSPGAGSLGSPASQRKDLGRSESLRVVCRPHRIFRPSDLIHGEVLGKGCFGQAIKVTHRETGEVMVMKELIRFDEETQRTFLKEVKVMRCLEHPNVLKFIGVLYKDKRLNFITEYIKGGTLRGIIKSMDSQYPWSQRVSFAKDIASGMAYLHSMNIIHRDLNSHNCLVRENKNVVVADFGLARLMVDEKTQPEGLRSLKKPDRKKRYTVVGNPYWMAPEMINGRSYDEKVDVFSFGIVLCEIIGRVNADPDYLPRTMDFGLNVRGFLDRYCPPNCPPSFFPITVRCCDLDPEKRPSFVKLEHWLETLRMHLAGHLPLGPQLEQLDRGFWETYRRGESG
T1 sequence (Q5S007 970-2527 G2019S limits assumed): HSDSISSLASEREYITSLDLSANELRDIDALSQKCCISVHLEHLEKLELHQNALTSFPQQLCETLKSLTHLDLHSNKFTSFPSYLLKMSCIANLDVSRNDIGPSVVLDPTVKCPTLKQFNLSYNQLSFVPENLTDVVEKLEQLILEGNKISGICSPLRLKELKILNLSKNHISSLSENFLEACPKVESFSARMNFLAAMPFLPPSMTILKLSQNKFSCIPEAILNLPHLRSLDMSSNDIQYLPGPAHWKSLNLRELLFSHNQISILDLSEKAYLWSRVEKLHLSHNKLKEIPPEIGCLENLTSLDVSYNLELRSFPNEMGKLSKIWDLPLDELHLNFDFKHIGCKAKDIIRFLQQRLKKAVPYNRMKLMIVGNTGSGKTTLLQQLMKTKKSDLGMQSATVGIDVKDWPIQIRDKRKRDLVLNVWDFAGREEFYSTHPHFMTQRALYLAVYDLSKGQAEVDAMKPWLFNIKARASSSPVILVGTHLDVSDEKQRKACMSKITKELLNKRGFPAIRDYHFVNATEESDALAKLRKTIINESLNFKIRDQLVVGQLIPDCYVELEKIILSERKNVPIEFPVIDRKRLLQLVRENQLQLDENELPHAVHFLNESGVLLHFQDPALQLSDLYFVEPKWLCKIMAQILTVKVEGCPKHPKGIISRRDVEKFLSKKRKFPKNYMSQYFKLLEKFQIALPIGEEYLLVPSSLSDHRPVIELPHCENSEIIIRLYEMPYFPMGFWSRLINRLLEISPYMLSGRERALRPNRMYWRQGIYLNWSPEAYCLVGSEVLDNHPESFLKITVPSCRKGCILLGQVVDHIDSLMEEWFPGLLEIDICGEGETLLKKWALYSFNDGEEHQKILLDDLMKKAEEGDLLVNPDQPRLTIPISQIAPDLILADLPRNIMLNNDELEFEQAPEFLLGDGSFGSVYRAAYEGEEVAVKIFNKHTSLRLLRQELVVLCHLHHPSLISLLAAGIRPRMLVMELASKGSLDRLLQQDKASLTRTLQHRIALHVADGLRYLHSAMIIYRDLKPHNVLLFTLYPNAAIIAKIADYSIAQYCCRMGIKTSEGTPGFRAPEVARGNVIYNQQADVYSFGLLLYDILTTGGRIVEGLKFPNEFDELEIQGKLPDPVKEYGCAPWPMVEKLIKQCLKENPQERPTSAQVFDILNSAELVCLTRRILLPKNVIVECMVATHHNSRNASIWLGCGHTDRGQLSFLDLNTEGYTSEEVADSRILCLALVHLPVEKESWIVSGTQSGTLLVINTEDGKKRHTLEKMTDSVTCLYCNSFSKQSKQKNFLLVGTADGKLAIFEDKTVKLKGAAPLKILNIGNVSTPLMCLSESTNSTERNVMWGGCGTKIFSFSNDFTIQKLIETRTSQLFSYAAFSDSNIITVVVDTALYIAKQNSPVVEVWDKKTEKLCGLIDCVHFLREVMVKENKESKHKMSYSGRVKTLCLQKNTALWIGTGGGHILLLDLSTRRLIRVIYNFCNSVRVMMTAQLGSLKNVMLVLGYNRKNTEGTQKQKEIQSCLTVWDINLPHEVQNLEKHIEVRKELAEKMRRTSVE
T7 sequence (P53355 whole entry): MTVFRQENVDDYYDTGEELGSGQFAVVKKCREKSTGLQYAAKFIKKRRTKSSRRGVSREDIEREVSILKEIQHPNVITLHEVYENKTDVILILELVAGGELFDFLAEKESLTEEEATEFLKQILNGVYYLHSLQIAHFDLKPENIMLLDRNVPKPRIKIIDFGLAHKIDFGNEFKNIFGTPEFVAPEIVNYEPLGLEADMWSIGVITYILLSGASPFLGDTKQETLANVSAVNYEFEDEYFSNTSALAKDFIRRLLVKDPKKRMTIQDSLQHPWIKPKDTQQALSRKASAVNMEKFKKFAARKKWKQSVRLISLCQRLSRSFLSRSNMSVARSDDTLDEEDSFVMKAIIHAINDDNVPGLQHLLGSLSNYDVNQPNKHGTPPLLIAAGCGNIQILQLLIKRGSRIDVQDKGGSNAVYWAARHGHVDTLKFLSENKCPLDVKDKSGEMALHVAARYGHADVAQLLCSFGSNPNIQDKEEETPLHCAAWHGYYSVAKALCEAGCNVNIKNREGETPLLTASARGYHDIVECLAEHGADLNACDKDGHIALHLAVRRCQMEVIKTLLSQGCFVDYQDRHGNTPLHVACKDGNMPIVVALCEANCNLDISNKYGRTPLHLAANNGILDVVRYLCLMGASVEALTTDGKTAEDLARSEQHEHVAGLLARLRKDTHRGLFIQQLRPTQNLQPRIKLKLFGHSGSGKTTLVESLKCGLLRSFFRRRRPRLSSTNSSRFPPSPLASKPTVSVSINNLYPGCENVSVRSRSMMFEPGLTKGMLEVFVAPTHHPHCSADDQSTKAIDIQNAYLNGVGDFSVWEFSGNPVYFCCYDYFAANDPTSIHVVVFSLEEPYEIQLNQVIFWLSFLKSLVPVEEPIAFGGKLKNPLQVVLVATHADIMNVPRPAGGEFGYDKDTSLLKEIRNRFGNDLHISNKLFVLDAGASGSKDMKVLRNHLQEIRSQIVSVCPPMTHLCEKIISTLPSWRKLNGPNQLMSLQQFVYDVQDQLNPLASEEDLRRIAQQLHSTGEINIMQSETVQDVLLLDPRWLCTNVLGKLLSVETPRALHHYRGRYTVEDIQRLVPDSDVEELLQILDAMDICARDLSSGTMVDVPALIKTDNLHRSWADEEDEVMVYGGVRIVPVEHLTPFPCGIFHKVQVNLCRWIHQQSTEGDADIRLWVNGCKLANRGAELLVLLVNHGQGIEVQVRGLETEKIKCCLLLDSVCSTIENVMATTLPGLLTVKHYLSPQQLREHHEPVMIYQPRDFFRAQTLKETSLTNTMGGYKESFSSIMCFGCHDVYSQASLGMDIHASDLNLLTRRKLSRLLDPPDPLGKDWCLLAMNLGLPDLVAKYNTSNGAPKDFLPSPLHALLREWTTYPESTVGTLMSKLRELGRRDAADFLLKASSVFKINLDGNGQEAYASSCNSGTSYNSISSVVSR
T6 sequence (P10721 26-976): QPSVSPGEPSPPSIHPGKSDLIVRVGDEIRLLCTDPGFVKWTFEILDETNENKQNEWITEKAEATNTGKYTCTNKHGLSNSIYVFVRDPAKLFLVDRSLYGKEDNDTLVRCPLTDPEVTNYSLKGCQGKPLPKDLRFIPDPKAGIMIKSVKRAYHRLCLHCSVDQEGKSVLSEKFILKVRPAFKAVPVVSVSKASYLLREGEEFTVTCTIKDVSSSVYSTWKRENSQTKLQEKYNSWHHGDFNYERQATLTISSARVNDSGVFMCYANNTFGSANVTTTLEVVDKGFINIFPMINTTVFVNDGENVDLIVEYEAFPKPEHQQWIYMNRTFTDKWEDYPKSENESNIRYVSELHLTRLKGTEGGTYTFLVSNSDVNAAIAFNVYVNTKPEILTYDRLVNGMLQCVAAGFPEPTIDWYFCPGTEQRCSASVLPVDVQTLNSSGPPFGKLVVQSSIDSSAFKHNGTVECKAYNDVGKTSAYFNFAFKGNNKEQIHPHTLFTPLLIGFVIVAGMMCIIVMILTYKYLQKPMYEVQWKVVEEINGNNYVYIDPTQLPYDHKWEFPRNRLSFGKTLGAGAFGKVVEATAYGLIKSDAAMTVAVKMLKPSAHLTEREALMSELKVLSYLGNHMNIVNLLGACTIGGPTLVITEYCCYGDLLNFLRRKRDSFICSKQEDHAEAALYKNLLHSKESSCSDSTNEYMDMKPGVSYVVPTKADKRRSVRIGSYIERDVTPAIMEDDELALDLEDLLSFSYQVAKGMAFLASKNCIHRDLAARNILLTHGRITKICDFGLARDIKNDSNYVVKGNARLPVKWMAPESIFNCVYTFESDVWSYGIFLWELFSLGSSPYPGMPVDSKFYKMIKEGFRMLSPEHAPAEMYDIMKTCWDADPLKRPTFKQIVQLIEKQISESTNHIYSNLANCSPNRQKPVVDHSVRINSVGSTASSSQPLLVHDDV
T3 sequence (Q13554 whole entry): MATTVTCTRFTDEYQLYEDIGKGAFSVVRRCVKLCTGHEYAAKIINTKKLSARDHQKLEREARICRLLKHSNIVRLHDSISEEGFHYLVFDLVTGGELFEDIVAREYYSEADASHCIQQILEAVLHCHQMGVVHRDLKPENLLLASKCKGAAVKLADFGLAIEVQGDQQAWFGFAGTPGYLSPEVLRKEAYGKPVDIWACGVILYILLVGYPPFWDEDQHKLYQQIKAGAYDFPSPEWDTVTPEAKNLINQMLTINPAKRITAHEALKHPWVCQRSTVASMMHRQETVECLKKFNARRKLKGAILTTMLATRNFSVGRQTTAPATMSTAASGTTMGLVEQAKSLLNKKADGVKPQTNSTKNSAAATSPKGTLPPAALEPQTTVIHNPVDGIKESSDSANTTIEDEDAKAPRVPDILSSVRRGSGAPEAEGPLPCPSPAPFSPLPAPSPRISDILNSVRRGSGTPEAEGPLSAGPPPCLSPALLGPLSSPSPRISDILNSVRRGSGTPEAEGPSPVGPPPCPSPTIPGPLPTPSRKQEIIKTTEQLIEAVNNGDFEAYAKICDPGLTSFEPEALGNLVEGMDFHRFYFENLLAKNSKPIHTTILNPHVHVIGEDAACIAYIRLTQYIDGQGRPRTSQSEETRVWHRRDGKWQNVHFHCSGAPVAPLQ

Broadly, the inhibition is the percentage by which the read-out fell short of the control. `Cc1c[nH]c2ncnc(-c3ccc(NC(=O)N(CCO)c4ccccc4)cc3)c12` [Compound 18b, 1-(2-Hydroxyethyl)-3-(4-(5-methyl-7H-pyrrolo[2,3-d]pyrimidin-4-yl)phenyl)-1-phenylurea]: at P450 3A4, the “P450 % inh. at 10 μM 3A4” value is given as 13%. Moreover, the “Microsomal Stability t1/2 (min) Rat” value in [1] came out at 30 min. Further, the inhibition at 1 µM on LRRK2 (G20195) (kinase panel) was > 50%. In addition, in the data set on HIV-1(NL4-3) [2], the “X4 HIV infection (screen)” value is reported as “blocked”. Moreover, on P450 2D6, the “P450 % inh. at 10 μM 2D6” value is 5%. For the same compound, in data set [3], the “Microsomal Stability t1/2 (min) Human” value is 87 min.
For `COC(=O)c1ccc2[nH]c(C3CCN(c4ncnc5[nH]cc(Cl)c45)CC3)nc2c1` [Compound R10015, Methyl 2-(1-(5-chloro-7H-pyrrolo[2,3-d]pyrimidin-4-yl)piperidin-4-yl)-1Hbenzo[d]imidazole-5-carboxylate], the SDF-1-mediated actin polymerization entry in the data set with resting CD4 T cells was “markedly depressed”. The “phosphorylation of PAK1/2” value in data set [4] is recorded as “not inhibited”. In the data set on HIV-1(AD8), the “R5 viral infection of memory CD4 T cells” value is listed as “inhibition”. Besides, in data set [5], the “cofilin serine 3 phosphorylation” value is given as “drastic inhibition”. In addition, in data set [6], the RVFV infection result is on record as “inhibited”. Also, the “phosphorylation of LIMK” value with phosphorylation of LIMK is on record as “did not inhibit”. Besides, the activity at 1 µM at PKA worked out at 24%; at CAMK2b, 90.8%; at BRAF, 91.9%; at c-5rc, 92.4%; at c-Kit it was 81.3%; at DAPK1 it was 87.8%. Besides, the activity at 1 µM was 6.7% at LRRK2 (G20195) (ATP 10 μM) and 6.4% at Limk1 [8]. In addition, the viral release entry in the data set on HIV-1(Env) is given as “inhibited”. In addition, the “viral nuclear migration (2-LTR circles)” value in data set [7] is reported as “inhibited”. The IC50 is 14900 nM in the data set on HIV-1(NL4-3) [2] (Human immunodeficiency virus 1, NL43, T-cell, read-out: half maximal inhibition concentration (IC50) for inhibiting HIV infection); 38 ± 5 nM on Limk1 [10] (Table 8, read-out: LIMK1 IC50); ~38 nM on Limk1 [10] (read-out: Limk1 IC50). The “X4 HIV infection (screen)” value in the data set on HIV-1(NL4-3) [2] ([…], dosages with no detectable cytotoxicity) is reported as “blocked”. Also, the “X4 viral infection of blood resting CD4 T cells” value with HIV-1(NL4-3) [9] was “inhibition”. Also, the cytotoxicity result in the data set on Rev-CEM-GFP-Luc is reported as “no detectable cytotoxicity”. Besides, in the data set on EBOV (Zaire ebolavirus), the EBOV infection result is “inhibited”.
